Blank lines part the entries; values can stand above or below the molecule they belong to.
Tests used:
[1] = biological target: T1, Casein kinase II subunit alpha (Homo sapiens, UniProt P68400); assay: Competitive inhibition of human wild type CK2alpha by Dixon plot analysis
[2] = biological target: T2, Adenosine kinase (Toxoplasma gondii) (UniProt Q9TVW2); assay: Binding affinity to Toxoplasma gondii adenosine kinase assessed as formation of [14C]AMP from [14C]adenosine and ATP after 10 mins by liquid scintillation counting method relative to control
T2 sequence (whole entry): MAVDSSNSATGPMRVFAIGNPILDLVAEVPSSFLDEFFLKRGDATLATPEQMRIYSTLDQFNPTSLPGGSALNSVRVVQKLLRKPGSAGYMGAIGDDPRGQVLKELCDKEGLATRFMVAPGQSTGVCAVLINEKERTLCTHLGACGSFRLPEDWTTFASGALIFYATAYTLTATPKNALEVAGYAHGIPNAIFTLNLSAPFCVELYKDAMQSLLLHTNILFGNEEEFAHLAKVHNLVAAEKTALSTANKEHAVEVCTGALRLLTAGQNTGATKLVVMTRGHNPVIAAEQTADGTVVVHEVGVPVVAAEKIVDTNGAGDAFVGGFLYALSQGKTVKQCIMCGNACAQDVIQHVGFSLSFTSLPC

[3] = biological target: T1, Casein kinase II subunit alpha; assay: Inhibition of human wild type CK2alpha
[4] = biological target: Human immunodeficiency virus type 1 reverse transcriptase (Human immunodeficiency virus 1) (UniProt Q72547); assay: Binding affinity to HIV1 reverse transcriptase relative to control
[5] = biological target: T1, Casein kinase II subunit alpha; assay: Inhibition of CK2alpha (unknown origin)
[6] = biological target: Cellular tumor antigen p53 (Homo sapiens, UniProt P04637, Y220C); assay: Stabilization of human p53 Y220C mutant by differential scanning calorimetry
Casein kinase II = Casein kinase II (Homo sapiens, UniProt P19784+P67870+P68400); assay: Inhibition of CK2 (unknown origin); assay type: protein-complex assay
Casein kinase II, sequence (P67870 whole entry): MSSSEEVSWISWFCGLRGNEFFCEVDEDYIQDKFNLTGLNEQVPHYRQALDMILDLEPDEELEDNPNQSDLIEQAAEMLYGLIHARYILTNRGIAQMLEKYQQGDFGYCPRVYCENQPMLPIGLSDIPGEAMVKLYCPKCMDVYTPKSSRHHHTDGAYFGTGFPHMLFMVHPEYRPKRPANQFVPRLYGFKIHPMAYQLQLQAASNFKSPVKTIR
Casein kinase II, sequence (P68400 whole entry): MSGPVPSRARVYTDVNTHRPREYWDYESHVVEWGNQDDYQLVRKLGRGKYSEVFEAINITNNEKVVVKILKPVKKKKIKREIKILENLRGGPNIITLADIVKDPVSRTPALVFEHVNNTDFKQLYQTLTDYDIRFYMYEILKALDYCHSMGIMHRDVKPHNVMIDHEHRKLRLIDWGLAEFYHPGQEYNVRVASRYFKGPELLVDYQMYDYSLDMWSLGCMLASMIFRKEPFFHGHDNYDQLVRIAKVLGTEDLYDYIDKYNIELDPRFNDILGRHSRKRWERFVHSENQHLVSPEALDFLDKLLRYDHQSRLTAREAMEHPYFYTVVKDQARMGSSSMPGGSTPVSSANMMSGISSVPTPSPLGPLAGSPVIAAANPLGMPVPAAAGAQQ
Casein kinase II, sequence (P19784 whole entry): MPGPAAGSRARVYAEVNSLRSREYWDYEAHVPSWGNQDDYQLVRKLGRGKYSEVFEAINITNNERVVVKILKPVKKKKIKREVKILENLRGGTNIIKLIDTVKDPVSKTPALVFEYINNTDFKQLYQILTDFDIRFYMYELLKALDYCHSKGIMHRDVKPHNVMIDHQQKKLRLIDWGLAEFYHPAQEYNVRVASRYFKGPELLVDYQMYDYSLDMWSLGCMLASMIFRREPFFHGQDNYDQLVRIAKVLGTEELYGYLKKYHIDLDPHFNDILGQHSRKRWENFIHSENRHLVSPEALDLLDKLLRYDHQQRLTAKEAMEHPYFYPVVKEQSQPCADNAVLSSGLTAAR

T1 sequence (P68400 whole entry): as the sequence (P68400 whole entry) above

SMILES: Nc1ncnc2c1c(I)cn2[C@@H]1O[C@H](CO)[C@@H](O)[C@H]1O
- fold change (FC) [2]: 200

SMILES: S=c1[nH]c2c(Br)c(Br)c(Br)c(Br)c2[nH]1
- Ki [3]: 70 nM

SMILES: O=c1[nH]ccc(Oc2ccccc2)c1I
- fold change (FC) [4]: 300

SMILES: CCn1c2ccccc2c2cc(CNC)ccc21
- Kd [6]: 150000 nM

SMILES: S=C1NC2C(I)=C(I)C(I)=C(I)C2N1 (stereo not given)
- Ki (Casein kinase II): 200 nM

More lines, now with the values ahead:

- Ki [1]: 200 nM
SMILES: Cc1nc2c(I)c(Cl)c(Cl)c(I)c2[nH]1

- Ki [1]: 150 nM
SMILES: CS(=O)(=O)c1nc2c(Br)c(Br)c(Br)c(Br)c2[nH]1

- Ki [5]: 400 nM
SMILES: FC(F)(F)c1nc2c(Br)c(Br)c(Br)c(Br)c2[nH]1

- Ki [1]: 300 nM
SMILES: Clc1c(Cl)c(I)c2[nH]cnc2c1I

- Ki (Casein kinase II): 370 nM
SMILES: FC(F)(F)c1nc2c(I)c(I)c(I)c(I)c2[nH]1

Reference: ChEMBL document CHEMBL3792305, “Computational Tools To Model Halogen Bonds in Medicinal Chemistry” (J Med Chem, 2016)
